# Assay results as given in patent US20030171400A1, “Heterocyclic side chain containing metalloprotease inhibitors” (priority 2000, published 2003).
# Columns and labels:
# Assay type in all cases: in vivo
# [1] = test system: human subject suffering from osteoarthritis; assay: Example B: capsule treatment of a subject suffering from osteoarthritis; conditions: capsule containing 70 mg daily for 5 years, 90 kg human
# Procedure: A capsule for oral administration, according to the present invention, is made comprising:
# A human subject weighing 90 kg (198 lbs.), suffering from osteoarthritis, is treated by a method of this invention. Specifically, for 5 years, a capsule containing 70 mg of the compound of Example 3 is administered daily to said subject.
# [2] = test system: human subject suffering from rheumatoid arthritis; assay: Example A: tablet treatment of a subject suffering from rheumatoid arthritis; conditions: tablet with 15 mg compound, three tablets per day orally for 2 years, 60 kg human
# Procedure: A tablet composition for oral administration, according to the present invention, is made comprising:
# A human subject weighing 60 kg (132 lbs), suffering from rheumatoid arthritis, is treated by a method of this invention. Specifically, for 2 years, a regimen of three tablets per day is administered orally to said subject.
# [3] = test system: asthma sufferer; assay: Example E: inhalation aerosol for asthma; conditions: 5.0% w/v inhalation aerosol, 0.01 mL sprayed into the mouth while inhaling
# Procedure: An inhalation aerosol composition, according to the present invention, is made comprising: An asthma sufferer sprays 0.01 mL via a pump actuator into the mouth while inhaling.
compound,measurement,setting,value
"CC(C)(C)OC(=O)N1CCC(C(NS(=O)(=O)c2ccc(Oc3ccccc3)cc2)C(=O)O)CC1 (stereo not drawn) [Example 3, 4-[Carboxy-(4-phenoxy-benzenesulfonylamino)-methyl]-piperidine-1-carboxylic acid tert-butyl ester]","erosion/fibrillation of the articular cartilage via x-ray, arthroscopy and/or MRI at the end of treatment",[1],no further advancement of erosion/fibrillation of the articular cartilage
"COCCOC(=O)N1CCC(C(NS(=O)(=O)c2ccc(-c3ccc(OC)cc3)cc2)C(=O)O)CC1 (stereo not drawn) [Example 31, 4-[Carboxy-(4′-methoxy-biphenyl-4-sulfonylamino)-methyl]-piperidine-1-carboxylic acid 2-methoxy-ethyl ester]","patient examination at the end of the treatment period (inflammation, mobility, pain)",[2],"reduced inflammation, and improved mobility without concomitant pain"
"COc1ccc(-c2ccc(S(=O)(=O)NC3(C(=O)O)CCNCC3)cc2)cc1 [Example 56, 4-(4′-Methoxy-biphenyl-4-sulfonylamino)-piperidine-4-carboxylic acid]",asthma symptoms,[3],Asthma symptoms are diminished
